Measurements from patent US11702404B2, “GLP-1R modulating compounds” (priority 2019, dated 2023).
Where two headings read alike, the source gives them in different places.

What was measured:
[1] = Microsomal stability, human liver microsomes (predicted hepatic clearance); conditions: predicted from in vitro microsomal stability data
GLP-1R = GLP-1R (Homo sapiens, UniProt P43220); assay: GLP-1R activation: cAMP increase in CHO cells stably expressing GLP-1R; type: cell-based
[2] = cAMP increase, CHO cells stably expressing GLP-1R, 10 point dose response, 30 minutes incubation, read-out: EC50

Chain of GLP-1R (P43220 24-463): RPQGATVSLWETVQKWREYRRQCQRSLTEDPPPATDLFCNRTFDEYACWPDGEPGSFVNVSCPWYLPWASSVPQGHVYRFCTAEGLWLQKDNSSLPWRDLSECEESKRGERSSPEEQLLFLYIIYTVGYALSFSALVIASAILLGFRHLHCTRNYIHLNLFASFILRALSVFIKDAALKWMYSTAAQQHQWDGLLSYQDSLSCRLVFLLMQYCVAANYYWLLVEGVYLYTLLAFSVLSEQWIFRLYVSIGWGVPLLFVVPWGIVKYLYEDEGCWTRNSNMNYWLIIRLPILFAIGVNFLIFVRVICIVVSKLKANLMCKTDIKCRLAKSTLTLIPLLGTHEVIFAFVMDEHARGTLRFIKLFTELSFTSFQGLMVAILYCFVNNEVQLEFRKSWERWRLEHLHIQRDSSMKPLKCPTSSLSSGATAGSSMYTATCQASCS

SMILES | Predicted Hepatic Clearance (Pred. Cl.) [1] [mL/min/kg] | EC50 (GLP-1R; [2]) [nM] | EC50 (GLP-1R; read-out: EC50) [nM] | EC50 (GLP-1R; EC50 (nM)) [nM]
COCCn1c(Cc2ccc(-c3cccc(OCc4ccc(C#N)cc4F)n3)cc2CF)nc2ccc(C(=O)O)cc21 [Example 410, 2-(4-(6-((4-cyano-2-fluorobenzyl)oxy)pyridin-2-yl)-2-(fluoromethyl)benzyl)-1-(2-methoxyethyl)-1H-benzo[d]imidazole-carboxylic acid] | 14.8 | 20.8 |  | 
N#Cc1ccc(COc2nccc(-c3cc(F)c(Cc4nc5ccc(C(=O)O)cc5n4C[C@@H]4CCO4)c(F)c3)n2)c(F)c1 [Example 121, (S)-2-(4-(2-((4-cyano-2-fluorobenzyl)oxy)pyrimidin-4-yl)-2,6-difluorobenzyl)-1-(oxetan-2-ylmethyl)-1H-benzo[d]imidazole-6-carboxylic acid] | 2.67 | 0.66 |  | 
N#Cc1ccc(COc2cccc(-c3ccc(Cc4nc5ccc(C(=O)O)cc5n4Cc4ccon4)c(F)c3)n2)c(F)c1 [Example 484, 2-(4-(6-((4-cyano-2-fluorobenzyl)oxy)pyridin-2-yl)-2-fluorobenzyl)-1-(isoxazol-3-ylmethyl)-1H-benzo[d]imidazole-6-carboxylic acid] | 3.45 | 1.06 |  | 
Cn1ccnc1Cn1c(Cc2ccc(-c3cccc(OCc4ccc(C#N)cc4F)n3)cc2F)nc2ccc(C(=O)O)cc21 [Example 607] | 3 | 108 |  | 
COCCC1(Cn2c(Cc3ccc(-c4cccc(OCc5ccc(C#N)cc5F)n4)cc3F)nc3ccc(C(=O)O)cc32)CC1 [Example 291, 2-(4-(6-((4-cyano-2-fluorobenzyl)oxy)pyridin-2-yl)-2-fluorobenzyl)-1-((1-(2-methoxyethyl)cyclopropyl)methyl)-1H-benzo[d]imidazole-6-carboxylic acid] | <1.83 | 1.06 |  | 
COCCn1c(Cc2cc(F)c(-c3nc(OCc4ccc(C(F)F)cc4F)ccc3F)cc2F)nc2c(F)cc(C(=O)O)cc21 [Example 664] | 4.67 | 0.67 |  | 
CC(=O)N1C[C@@H](F)C[C@@H]1Cn1c(Cc2cc(F)c(-c3cccc(OCc4ccc(C#N)cc4F)n3)cc2F)nc2ccc(C(=O)O)cc21 [Example 690] | 6 |  | 3.98 | 
COCCn1c(Cc2ccc(-c3cccc(OCc4ccc(C#N)cc4F)n3)cc2CO)nc2ccc(C(=O)O)cc21 [Example 425, 2-(4-(6-((4-cyano-2-fluorobenzyl)oxy)pyiridn-2-yl)-2-(hydroxymethyl)benzyl)-1-(2-methoxyethyl)-1H-benzo[d]imidazole-6-carboxylic acid] | 6.7 | 4.29 |  | 
N#Cc1ccc(COc2nccc(-c3cc(F)c(Cc4nc5c(F)cc(C(=O)O)cc5n4CC45CC(CO4)C5)cc3F)n2)c(F)c1 [Example 644] | 8 | 0.69 |  | 
CO[C@@H]1CN(C(C)=O)C[C@H]1n1c(Cc2cc(F)c(-c3cccc(OCc4ccc(C#N)cc4F)n3)cc2F)nc2ccc(C(=O)O)cc21 [Example 920] | 4.67 |  | 58.5 | 
COc1cc(Cl)ccc1COc1cccc(-c2ccc(Cc3nc4ccc(C(=O)O)cc4n3CC3(CC#N)CC3)cc2F)n1 [Example 74, 2-(4-(6-((4-chloro-2-methoxybenzyl)oxy)pyridin-2-yl)-3-fluorobenzyl)-1-((1-(cyanomethyl)cyclopropyl)methyl)-1H-benzo[d]imidazole-6-carboxylic acid] | 13.2 | 0.46 |  | 
COC[C@H](c1ccccc1)n1c(Cc2cc(F)c(-c3cccc(OCc4ccc(C#N)cc4F)n3)cc2F)nc2ccc(C(=O)O)cc21 [Example 717] | 7.5 | 41.5 |  | 
COCCn1c(Cc2ccc(-c3cccc(OCc4ccc(C#N)cc4F)n3)cc2C#CC2(CO)CC2)nc2ccc(C(=O)O)cc21 [Example 240, 2-(4-(6-((4-cyano-2-fluorobenzyl)oxy)pyridin-2-yl)-2-((1-(hydroxymethyl)cyclopropyl)ethynyl)benzyl)-1-(2-methoxyethyl)-1H-benzo[d]imidazole-6-carboxylic acid] | 13.7 | 6.82 |  | 
COCCn1c(Cc2cc(F)c(-c3cccc(OCc4ccc(C#N)cc4F)n3)cc2F)nc2ccc(C(=O)O)cc21 [Example 426, 2-(4-(6-((4-cyano-2-fluorobenzyl)oxy)pyridin-2-yl)-2,5-difluorobenzyl)-1-(2-methoxyethyl)-1H-benzo[d]imidazole-6-carboxylic acid] | 4.6 | 2.34 |  | 
COCCn1c(Cc2cc(F)c(-c3cccc(OCc4ccc(C#N)cc4F)n3)cc2F)nc2cc(Cl)c(C(=O)O)cc21 [Example 837] | 1.83 | 29.3 |  | 
N#Cc1ccc(COc2cccc(-c3cc(F)c(Cc4nc5ccc(C(=O)O)cc5n4C[C@@H]4CCO4)cc3F)n2)cn1 [Example 807] | 3.33 | 0.18 |  | 

SMILES | Predicted Hepatic Clearance (Pred. Cl.) [1] [mL/min/kg] | EC50 (GLP-1R; [2]) [nM] | EC50 (GLP-1R; read-out: EC50) [nM] | EC50 (GLP-1R; EC50 (nM)) [nM]
CC(C)(Cn1c(Cc2ccc(-c3cccc(OCc4ccc(C#N)cc4F)n3)c(F)c2)nc2ccc(C(=O)O)cc21)C(F)F [Example 295, 2-(4-(6-((4-cyano-2-fluorobenzyl)oxy)pyridin-2-yl)-3-fluorobenzyl)-1-(3,3-difluoro-2,2-dimethylpropyl)-1H-benzo[d]imidazole-6-carboxylic acid] | 8.3 | 2.12 |  | 
CCc1cnccc1Cn1c(Cc2ccc(-c3cccc(OCc4ccc(C#N)cc4F)n3)c(F)c2)nc2ccc(C(=O)O)cc21 [Example 534, 2-(4-(6-((4-cyano-2-fluorobenzyl)oxy)pyridin-2-yl)-3-fluorobenzyl)-1-((3-ethylpyridin-4-yl)methyl)-1H-benzo[d]imidazole-6-carboxylic acid] | 15.2 | 49.9 |  | 
COC(Cn1c(Cc2cc(F)c(-c3cccc(OCc4ccc(C#N)cc4F)n3)cc2F)nc2ccc(C(=O)O)cc21)C(F)(F)F (centres unmarked) [Example 715] | 2 | 4.01 |  | 
COCCn1c(Cc2ccc(-c3cccc(NCc4ccc(C#N)cc4OC)n3)cc2F)nc2ccc(C(=O)O)cc21 [Example 195] | 9.5 | 15.8 |  | 
CO[C@@H]1CCC[C@@H]1n1c(Cc2cc(F)c(-c3cccc(OCc4ccc(C#N)cc4F)n3)cc2F)nc2ccc(C(=O)O)cc21 [Example 708] | 7.5 | 0.64 |  | 
COCCn1c(C2OCCc3cc(-c4cccc(OCc5ccc(C#N)cc5F)n4)ccc32)nc2ccc(C(=O)O)cc21 (centres unmarked) [Example 37, 2-(6-(6-((4-cyano-2-fluorobenzyl)oxy)pyridin-2-yl)isochroman-1-yl)-1-(2-methoxyethyl)-1H-benzo[d]imidazole-carboxylic acid] | 8.67 | 927 |  | 
N#Cc1ccc(COc2cccc(-c3ccc(Cc4nc5ccc(C(=O)O)cc5n4C[C@@H]4CCO4)cc3F)n2)cn1 [Example 656] | 4.67 | 1.52 |  | 
COCCn1c(Cc2cc(F)c(-c3cccc(OCc4ccc(C#N)cc4F)n3)cc2F)nc2c(F)cc(C(=O)O)cc21 [Example 301, 2-(4-(6-((4-cyano-2-fluorobenzyl)oxy)pyridin-2-yl)-2,5-difluorobenzyl)-4-fluoro-1-(2-methoxyethyl)-1H-benzo[d]imidazole-6-carboxylic acid] | 5.05 |  |  | 0.73
N#Cc1ccc(COc2cccc(-c3ccc(Cc4nc5ccc(C(=O)O)cc5n4C[C@H]4CCS4(=O)=O)cc3)n2)c(F)c1 (racemic) [Example 475, 2-(4-(6-((4-cyano-2-fluorobenzyl)oxy)pyridin-2-yl)benzyl)-1-((1,1-dioxidothietan-2-yl)methyl)-1H-benzo[d]imidazole-6-carboxylic acid] | 2 | 325 |  | 
N#Cc1ccc(COc2cccc(-c3ccc(Cc4nc5c(F)cc(C(=O)O)cc5n4C[C@@H]4CCO4)cc3)n2)c(F)c1 [Example 633] | 4.83 | 0.17 |  | 
CC(C)(CF)Cn1c(Cc2ccc(-c3cccc(OCc4ccc(C#N)cc4F)n3)c(F)c2)nc2ccc(C(=O)O)cc21 [Example 294, 2-(4-(6-((4-cyano-2-fluorobenzyl)oxy)pyridin-2-yl)-3-fluorobenzyl)-1-(3-fluoro-2,2-dimethylpropyl)-1H-benzo[d]imidazole-6-carboxylic acid] | 8.3 |  |  | 0.75
COCCn1c(Cc2ccc(-c3cccc(Oc4cccc5ccccc45)n3)cc2F)nc2ccc(C(=O)O)cc21 [Example 98, 2-(2-fluoro-4-(6-(naphthalen-1-yloxy)pyridin-2-yl)benzyl)-1-(2-methoxyethyl)-1H-benzo[d]imidazole-6-carboxylic acid] | 7.33 | 913 |  | 
N#Cc1ccc(COc2cccc(-c3cc(F)c(Cc4nc5ccc(C(=O)O)cc5n4CC4(O)CC4)cc3F)n2)c(F)c1 [Example 733] | 3.83 | 2.47 |  | 
CC(C)(C)C(=O)N1CC[C@@H]1Cn1c(Cc2ccc(-c3cccc(OCc4ccc(C#N)cc4F)n3)cc2F)nc2ccc(C(=O)O)cc21 [Example 887, 2-[[4-[6-[(4-cyano-2-fluoro-phenyl)methoxy]-2-pyridyl]-2-fluoro-phenyl]methyl]-3-[[(2R)-1-(2,2-dimethylpropanoyl)azetidin-2-yl]methyl]benzimidazole-5-carboxylic acid] | 8.83 |  | 8310 | 
N#Cc1ccc(COc2cccc(-c3cc(F)c(Cc4nc5ccc(C(=O)O)cc5n4CCOC(F)F)cc3F)n2)c(F)c1 [Example 325, 2-(4-(6-((4-cyano-2-fluorobenzyl)oxy)pyridin-2-yl)-2,5-difluorobenzyl)-1-(2-(difluoromethoxy)ethyl)-1H-benzo[d]imidazole-6-carboxylic acid] | 5.67 | 1.61 |  | 
